Literature values in patent US6420379B1, “Alkynyl-substituted camptothecins and process for their preparation” (Pharmacia & Upjohn S.p.A., priority 1997, dated 2002).

Key:
[1] = 2 hours after drug addition to human plasma
[2] = target: human albumin (Homo sapiens, UniProt P02768); details: presence of biologically relevant levels of human albumin
Sequence of human albumin (P02768 25-609): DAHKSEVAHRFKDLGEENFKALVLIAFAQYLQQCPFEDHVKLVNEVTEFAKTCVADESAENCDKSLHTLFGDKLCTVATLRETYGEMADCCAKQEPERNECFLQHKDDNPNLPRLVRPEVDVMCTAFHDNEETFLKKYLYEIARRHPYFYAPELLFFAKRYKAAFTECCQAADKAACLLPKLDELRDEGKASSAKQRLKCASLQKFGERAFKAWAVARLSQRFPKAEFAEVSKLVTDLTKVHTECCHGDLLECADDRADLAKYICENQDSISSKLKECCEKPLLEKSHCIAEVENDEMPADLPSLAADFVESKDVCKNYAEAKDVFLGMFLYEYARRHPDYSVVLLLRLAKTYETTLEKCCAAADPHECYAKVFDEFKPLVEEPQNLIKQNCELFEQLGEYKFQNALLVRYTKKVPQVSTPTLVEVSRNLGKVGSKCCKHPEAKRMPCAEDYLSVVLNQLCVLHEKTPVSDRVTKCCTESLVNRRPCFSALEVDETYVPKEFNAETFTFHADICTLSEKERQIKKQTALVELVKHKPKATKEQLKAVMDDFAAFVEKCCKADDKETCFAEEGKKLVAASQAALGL

CC[C@@]1(O)C(=O)OCc2c1cc1n(c2=O)Cc2cc3ccccc3nc2-1 [camptothecin]
percentage of the drug converted to camptothecin carboxylate [1]: greater than 99% | half-life of the biologically active form [2]: about 12 min.
